As usually defined, the IC50 is the concentration needed to halve the response being measured. As a reminder, the % Inhibition is the drop in the measured response relative to a control, in per cent.

Where two headings read alike, the source gives them in different places.

Assay [1] deals with LoVo (colon cancer) cell line. Description: IC50 determination, MIT (tetrazolium) assay, 72 h (Example 18). Format: cell-based, human. The conditions noted are these: Homo sapiens, 72 hours of drug exposure. As for the experimental part: (§1) Before plating, cell cultures were trypsinized and cell number estimated using an automated flow cytometer.
(§2) Cells were harvested and seeded in 96 well microtiter plates at the appropriate cell density (5,000-10,000 cells) in 150 μL of media and incubated for 24 hours to allow the cells to attach before drug addition.
(§3) After the incubation period (72 hours), 50 μL of MIT solution was added to each microtiter well and incubated for further 8 hours at 37° C. The culture medium was then removed and 50 μl, of DMSO were added to dissolve the MIT crystals. Optical densities were read at 540 nm on spectrophotometer microplate reader.
(§4) IC50 values were calculated from an average of two to four assays for each of the test agents.

Assay [2] deals with HT-29 (colon cancer) cell line. The assay is described as above. Type of assay: cell-based, human. The conditions noted are these: Homo sapiens; HT-29, 72 hours of drug exposure. Here is the method: as §1, §2, §3, §4
The subject of assay [3] is HCT-116 (colon cancer) cell line. Described as above. Format: cell-based, human. The following applies: Homo sapiens; HCT-116, 72 hours of drug exposure. Here is the method: HCT-116 cells were grown in McCoy's supplemented with 10% Fetal Bovine Serum (FBS), 1% penicillin/streptomycin and 2 mM L-glutamine.
as §1, §2, §3, §4

In a further assay the test system is MRI-H-254 tumors. Format: in vivo, mice. The following applies: for % T/C on day 20 / % T/C on day 23 / % T/C on day 26 / % T/C on day 30 / % T/C on day 34 / % T/C on day 36 / % T/C on day 43 / % T/C on day 49 / % T/C on day 56 / % T/C on day 63: PM00104 0.90 IV, DPI 20, 27, 34. As for the experimental part: Female athymic nude mice (Harlan Sprague Dawley, Madison, Wis.) were utilized for all experiments. Animals were housed in ventilated rack caging with food and water ad libitum. The mice were acclimated for at least 5 days prior to tumor implantation with tumor fragments.
Bacterial culture was taken on cells used to implant the study.
Treatments were initiated on DPI 20.
5-FU was provided in the form of injection vials which was diluted with 0.9% sterile Saline.
Tumor size measurements were recorded twice weekly from the treatment initiation until the termination of the study.
Mean, standard deviation and standard error of the mean were determined for tumor volume for all animal groups at all assessments. Student's t test was performed on tumor volumes at each measurement day, including at the end of the study, to determine whether there were any statistically significant differences between combination treatment groups and single monotherapy treatment groups.

The subject of assay [4] is NCI-H23 (lung cancer) cell line. Description: IC50 determination, MIT (tetrazolium) assay, 72 h (Example 18). Format: cell-based, human. The following applies: Homo sapiens; NCI-H23, 72 hours of drug exposure. As for the experimental part:
NCI-H23 cells were grown in RPMI supplemented with 10% Fetal Bovine Serum (FBS), 1% penicillin/streptomycin and 2 mM L-glutamine.
as §1, §2, §3, §4

Setting [5] is: 5-FU 100 IP mg/kg/day (G2, G3, G5).

Consider `O=c1[nH]cc(F)c(=O)[nH]1` [5-FU, 5-fluorouracil], for which the IC50 came to 1800 nM in assay [1], 4 µM in assay [2] and 6 µM in assay [3]. Moreover, the “% T/C on day 20” value is on record as 96.0% in the assay with MRI-H-254 tumors (5-FU 50 IP mg/kg/day (G4, G6)) and 101.8% with MRI-H-254 tumors (setting [5]). Moreover, the “% T/C on day 23” value in the assay on MRI-H-254 tumors (5-FU 50 IP mg/kg/day (G4, G6)) is given as 52.3%; in the assay on MRI-H-254 tumors (setting [5]) it was 55.2%. Moreover, the “% T/C on day 26” value in the assay with MRI-H-254 tumors (5-FU 50 IP mg/kg/day (G4, G6)) is given as 47.9%; in the assay with MRI-H-254 tumors (setting [5]), 47.1%. Besides, the “% T/C on day 30” value with MRI-H-254 tumors (5-FU 50 IP mg/kg/day (G4, G6)) was 55.3%; in the assay on MRI-H-254 tumors (setting [5]), 36.3%. The “% T/C on day 34” value is given as 45.0% with MRI-H-254 tumors (5-FU 50 IP mg/kg/day (G4, G6)) and 31.6% in the assay on MRI-H-254 tumors (setting [5]). For the same molecule, the “% T/C on day 36” value is given as 45.7% in the assay with MRI-H-254 tumors (5-FU 50 IP mg/kg/day (G4, G6)) and 23.0% with MRI-H-254 tumors (setting [5]). Moreover, the “% T/C on day 43” value with MRI-H-254 tumors (5-FU 50 IP mg/kg/day (G4, G6)) worked out at 58.1%; in the assay with MRI-H-254 tumors (setting [5]) it was 30.9%. Moreover, the “% T/C on day 49” value with MRI-H-254 tumors (5-FU 50 IP mg/kg/day (G4, G6)) is 100.0%; in the assay with MRI-H-254 tumors (setting [5]), 54.6%. Further, the “% T/C on day 56” value was found to be 117.6% with MRI-H-254 tumors (5-FU 50 IP mg/kg/day (G4, G6)) and 96.3% in the assay with MRI-H-254 tumors (setting [5]). Further, the “% T/C on day 63” value in the assay with MRI-H-254 tumors (5-FU 50 IP mg/kg/day (G4, G6)) was determined as 123.9%; with MRI-H-254 tumors (setting [5]) it was 107.8%. Further, the “% Inhibition” value in the assay with MRI-H-254 tumors (day 20, PM00104 0.9 and 5-FU 50 mg/kg/day) was 4.0%; with MRI-H-254 tumors (day 20, PM00104 0.9 and 5-FU 100 mg/kg/day) it was −1.8%; with MRI-H-254 tumors (day 23, PM00104 0.9 and 5-FU 50 mg/kg/day) it was 47.7%; in the assay on MRI-H-254 tumors (day 23, PM00104 0.9 and 5-FU 100 mg/kg/day) it was 44.8%; in the assay on MRI-H-254 tumors (day 26, PM00104 0.9 and 5-FU 50 mg/kg/day) it was 52.1%; in the assay on MRI-H-254 tumors (day 26, PM00104 0.9 and 5-FU 100 mg/kg/day) it was 52.9%. For the same molecule, the “% Inhibition” value was determined as 44.7% in the assay with MRI-H-254 tumors (day 30, PM00104 0.9 and 5-FU 50 mg/kg/day); 63.7% in the assay with MRI-H-254 tumors (day 30, PM00104 0.9 and 5-FU 100 mg/kg/day); 55.0% in the assay on MRI-H-254 tumors (day 34, PM00104 0.9 and 5-FU 50 mg/kg/day); 68.4% with MRI-H-254 tumors (day 34, PM00104 0.9 and 5-FU 100 mg/kg/day); 54.3% with MRI-H-254 tumors (day 36, PM00104 0.9 and 5-FU 50 mg/kg/day); 77.0% with MRI-H-254 tumors (day 36, PM00104 0.9 and 5-FU 100 mg/kg/day). Moreover, the “% Inhibition” value with MRI-H-254 tumors (day 43, PM00104 0.9 and 5-FU 50 mg/kg/day) is listed as 41.9%; in the assay on MRI-H-254 tumors (day 43, PM00104 0.9 and 5-FU 100 mg/kg/day) it was 69.1%; with MRI-H-254 tumors (day 49, PM00104 0.9 and 5-FU 50 mg/kg/day), 0.0%; with MRI-H-254 tumors (day 49, PM00104 0.9 and 5-FU 100 mg/kg/day), 45.4%; with MRI-H-254 tumors (day 56, PM00104 0.9 and 5-FU 50 mg/kg/day) it was −17.6%; in the assay on MRI-H-254 tumors (day 56, PM00104 0.9 and 5-FU 100 mg/kg/day), 3.7%. Besides, the “% Inhibition” value is on record as −23.9% in the assay on MRI-H-254 tumors (day 63, PM00104 0.9 and 5-FU 50 mg/kg/day); −7.8% in the assay with MRI-H-254 tumors (day 63, PM00104 0.9 and 5-FU 100 mg/kg/day).

Molecule `CC(=O)O[C@H]1C(=O)[C@@]2(C)[C@H]([C@H](OC(=O)c3ccccc3)[C@]3(O)C[C@H](OC(=O)[C@H](O)[C@@H](NC(=O)c4ccccc4)c4ccccc4)C(C)=C1C3(C)C)[C@]1(OC(C)=O)CO[C@@H]1C[C@@H]2O` [paclitaxel] showed an IC50 in assay [4] of 47 nM.
